Each structure is given as a SMILES string. Calls of active or inactive are those of the source. The calls are words filed in the database; no cut-off is given here.

The test relates to Radical scavenging activity. Kind of test: Antioxidant activity assessed as DPPH radical scavenging activity at 20 uM after 2 min by spectrophotometric analysis. The format is functional.

Take `O=C(/C=C/c1ccc(O)c(O)c1)OC[C@H]1O[C@@H](Oc2cc(O)c3c(c2)O[C@H](c2ccc(O)cc2)CC3=O)[C@H](O)[C@@H](O)[C@@H]1O`: the outcome was inactive. As for `O=C(/C=C/c1ccc(O)c(O)c1)OC[C@H]1O[C@@H](Oc2cc(O)c3c(=O)c(-c4ccc(O)cc4)coc3c2)[C@H](O)[C@@H](O)[C@@H]1O`, the outcome was inactive.

The values are drawn from ChEMBL document CHEMBL3046107, “A new isoflavone from Blepharis ciliaris of an Egyptian origin” (Med Chem Res, 2013).
